Measured values: US8557842B2 (priority 2010, dated 2013)
Entries after “also recorded” stand apart in the source; their conditions may differ. Like-named read-outs stand apart in the source and are kept apart here.

Columns and labels:
adult male C57BL/6 mice = experiment: Forced swim test model of antidepressant-like activity; format: in vivo; conditions: vs saline
Experimental: Data are mean ±SEM (vertical bar). ***P<0.001, n=7-9 (One-way ANOVA and Bonferroni post-hoc tests).
The Forced Swim Test (FST) is a rodent model often used to evaluate the anti-depressive effect of therapeutics. Rats swim under conditions in which escape is not possible. On the first day, rats are forced to swim for 15 minutes. The animals are observed to initially struggle to escape from the water. They then adopt a posture of immobility making only movements necessary to keep their heads above water. The rats are retested 24 hours later. The immobility increases. Treatment with standard antidepressant drugs within the 24 hours between the first exposure to forced swimming and retesting can block facilitated immobility, an effect which is associated with antidepressant efficacy in humans. See Porsolt et al, (1977) Nature 266:730-732; Detke et al. (1995) Psychopharmacology 121:66-72.
Antidepressant-like activity of compound 11 was tested in the forced swim test model as previously described (Porsolt et al., supra; Castagne et al. (2011) Curr Protoc Neurosci 55: Unit 8.10A). Briefly, adult male C57BL/6 mice (N=7-9/group) were placed into individual glass cylinders containing clean 25° C. (±1° C.) water, 15 cm deep for 15 minutes. Mice were removed, dried and returned to their home cages. A second 6-minute swim test was given 24 hours after the first. Saline (3 ml/kg, i.p.), Compound 11 (30 mg/kg, i.p.) or desipramine (10 mg/kg, i.p.; a well-known antidepressant, used as a positive control) were administered […], 5 hours, and 1 hour before the second swim test (i.e., 30 minutes, 19 hours and 23 hours after the first swim). Test sessions were video recorded. Behavior during the 6-minute swim test was scored from the videotapes. The cumulative amount of time that the mouse was immobile in the water during the last 4 minutes of the test was measured, as was the latency for the mouse to show the first bout of immobility behavior. Immobility was defined as the mouse performing no movements except those necessary to keep the head above the water (e.g., no swimming or climbing behaviors). […] Immobility scores were analyzed by a one-way ANOVA, followed by the Bonferroni post-hoc analysis.

[1] = 25 mg/kg i.p., reported levels, cited from earlier work
Male C57BL/6 mice = experiment: Locomotor ambulatory activity; format: in vivo
From the text: Many, but not all, psychostimulants with potent action at DAT, also stimulate locomotor ambulatory activity in rodents. […] Male C57BL/6 mice were contained in a box equipped with infrared beams, the consecutive interruption of which by horizontal activity by the mouse provided a measure for ambulation.

human DAT = molecular target: T1, human DAT (Homo sapiens, UniProt Q01959); experiment: Inhibition of [3H]DA uptake in cells expressing cloned human DAT; format: cell-based
T1 construct: expressed in transfected cells; cells as described by Chen et al., J. Neurochem; 2004, 89:853-864

human SERT = molecular target: T2, human SERT (Homo sapiens, UniProt P31645); experiment: cell-based
T2 construct: expressed in transfected cells; cells as described by Eshleman et al., J. Pharmacol. Exp. Ther. 1995, 274:276-283

human NET = molecular target: T3, human NET (Homo sapiens, UniProt P23975); experiment: cell-based
T3 construct: expressed in transfected cells; cells as described by Reith et al., J. Neurosci

[2] = Brain uptake: brain and plasma levels by mass spectrometry; conditions: for concentration at 5 min / concentration at 30 min: male, CD-1, mouse, intraperitoneal, 30 mg/kg
Experimental: Data shown are mean±SEM (vertical bar).
Brain and plasma levels of 11 were determined by mass spectrometry.

[3] = tested at 10 mg/kg and 30 mg/kg

T3 sequence (P23975 whole entry): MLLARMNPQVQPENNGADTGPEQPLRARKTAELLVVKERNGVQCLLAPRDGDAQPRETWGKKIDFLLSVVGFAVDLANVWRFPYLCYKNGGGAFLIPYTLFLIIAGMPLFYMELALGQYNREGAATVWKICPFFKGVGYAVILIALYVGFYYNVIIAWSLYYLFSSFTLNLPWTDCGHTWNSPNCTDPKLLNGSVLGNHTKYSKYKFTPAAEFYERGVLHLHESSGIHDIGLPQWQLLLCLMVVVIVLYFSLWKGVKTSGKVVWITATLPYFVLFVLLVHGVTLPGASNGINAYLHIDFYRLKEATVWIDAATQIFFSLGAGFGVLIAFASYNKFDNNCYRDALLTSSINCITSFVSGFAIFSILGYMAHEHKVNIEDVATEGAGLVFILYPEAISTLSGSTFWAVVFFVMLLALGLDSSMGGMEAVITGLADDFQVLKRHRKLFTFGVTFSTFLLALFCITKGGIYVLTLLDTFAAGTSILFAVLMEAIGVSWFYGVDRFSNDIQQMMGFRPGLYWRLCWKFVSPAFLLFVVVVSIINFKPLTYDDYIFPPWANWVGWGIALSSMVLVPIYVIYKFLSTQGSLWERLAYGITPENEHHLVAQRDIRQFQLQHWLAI
T1 sequence (Q01959 whole entry): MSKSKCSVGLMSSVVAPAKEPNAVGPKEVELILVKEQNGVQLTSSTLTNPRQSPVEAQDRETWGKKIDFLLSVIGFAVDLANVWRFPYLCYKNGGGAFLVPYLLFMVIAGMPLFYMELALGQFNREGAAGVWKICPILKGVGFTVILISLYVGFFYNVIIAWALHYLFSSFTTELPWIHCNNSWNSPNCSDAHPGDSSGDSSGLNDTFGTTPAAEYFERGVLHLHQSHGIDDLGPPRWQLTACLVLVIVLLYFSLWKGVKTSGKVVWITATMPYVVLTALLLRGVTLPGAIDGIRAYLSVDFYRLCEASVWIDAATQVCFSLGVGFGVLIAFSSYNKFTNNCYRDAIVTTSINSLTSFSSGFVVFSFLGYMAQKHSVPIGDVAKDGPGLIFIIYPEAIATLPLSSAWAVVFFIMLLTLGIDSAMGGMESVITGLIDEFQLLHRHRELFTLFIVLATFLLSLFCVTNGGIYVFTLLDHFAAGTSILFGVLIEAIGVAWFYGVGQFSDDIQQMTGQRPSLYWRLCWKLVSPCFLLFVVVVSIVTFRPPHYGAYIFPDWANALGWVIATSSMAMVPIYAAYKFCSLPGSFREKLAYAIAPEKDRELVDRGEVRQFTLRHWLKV
T2 sequence (P31645 whole entry): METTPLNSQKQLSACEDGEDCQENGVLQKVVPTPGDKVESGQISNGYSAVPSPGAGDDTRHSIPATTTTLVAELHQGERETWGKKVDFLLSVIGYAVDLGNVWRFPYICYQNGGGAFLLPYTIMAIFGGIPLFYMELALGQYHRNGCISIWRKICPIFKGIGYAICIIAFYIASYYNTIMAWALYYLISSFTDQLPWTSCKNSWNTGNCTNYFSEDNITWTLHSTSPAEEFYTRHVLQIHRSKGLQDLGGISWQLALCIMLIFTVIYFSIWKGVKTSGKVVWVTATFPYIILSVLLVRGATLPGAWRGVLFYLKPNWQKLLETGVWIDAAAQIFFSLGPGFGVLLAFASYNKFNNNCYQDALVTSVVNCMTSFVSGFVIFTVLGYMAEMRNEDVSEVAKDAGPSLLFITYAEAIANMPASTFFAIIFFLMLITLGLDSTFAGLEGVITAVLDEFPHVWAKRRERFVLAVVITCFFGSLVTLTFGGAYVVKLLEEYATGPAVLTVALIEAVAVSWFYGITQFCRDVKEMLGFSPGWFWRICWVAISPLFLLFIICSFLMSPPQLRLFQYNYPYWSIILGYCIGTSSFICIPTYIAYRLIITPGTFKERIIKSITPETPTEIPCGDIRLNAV

| SMILES | Ki (human DAT) [nM] | Ki (human SERT) [nM] | Locomotor stimulation (Male C57BL/6 mice; [3]) | Ki (human NET) [nM] | other results |
| --- | --- | --- | --- | --- | --- |
| CNCCCN1c2ccccc2CCc2ccccc21 [desipramine, reference compound] |  |  |  |  | Immobility time (adult male C57BL/6 mice; 10 mg/kg i.p.): decreased immobility time; Latency to first episode of immobility (adult male C57BL/6 mice; 10 mg/kg i.p.): increased latency to first episode of immobility |
| COC(=O)[C@H]1[C@@H](OC(=O)c2ccccc2)C[C@@H]2CC[C@H]1N2C [cocaine, methyl-(1R,2R,3S,5S)-3-(benzoyloxy)-8-methyl-8-azabicyclo[3.2.1]octane-2-carboxylate] |  |  |  |  | Brain level ([1]; 5 minutes): 6700 ± 1200 ng/mL; Plasma level ([1]; 5 minutes): 1100 ± 100 ng/mL; Brain level ([1]; 30 minutes): 2300 ± 300 ng/mL; Plasma level ([1]; 30 minutes): 400 ± 50 ng/mL; Locomotor stimulation (Male C57BL/6 mice; 10 mg/kg intraperitoneally): slight elevation above saline; Locomotor stimulation (Male C57BL/6 mice; 30 mg/kg intraperitoneally): pronounced increase |
| CCC[C@@]12CC[C@@H](C[C@H](OC(=O)c3ccccc3)[C@@H]1C(=O)OC)N2C [Compound 11a, Methyl (1R,2R,3S,5S)-(−)-1-propyl-3-(benzoyloxy)-8-methyl-8-azabicyclo[3.2.1]octane-2-carboxylate] | 871 ± 205 | 2990 | locomotor activities below those observed with 10 mg/kg of cocaine | 796 ± 195 |  |
| COC(=O)C1[C@@H](OC(=O)c2ccccc2)CC2CCC1(C)N2C (stereo partly drawn) [Compound 11, Methyl (1R,2R,3S,5S)-(−)-3-(benzoyloxy)-1,8-dimethyl-8-azabicyclo[3.2.I]octane-2-carboxylate] | 168 ± 23 | 435 ± 77 |  | 488 ± 101 | Locomotor stimulation (Male C57BL/6 mice; 30 mg/kg intraperitoneally): did not stimulate locomotion to levels above those seen with 10 mg/kg of cocaine; Immobility time (adult male C57BL/6 mice; 30 mg/kg i.p., last 4 minutes of the 6-minute swim test): decreased immobility time; also recorded: as effective as the antidepressant desipramine in reducing immobility time; Latency to first episode of immobility (adult male C57BL/6 mice; 30 mg/kg i.p.): increased latency to first episode of immobility; also recorded: significantly increased over saline; concentration at 5 min ([2]; brain): 8600 ± 700 ng/mL; concentration at 30 min ([2]; brain): 3800 ± 200 ng/mL; concentration at 5 min ([2]; plasma): 3300 ± 200 ng/mL; concentration at 30 min ([2]; plasma): 1700 ± 300 ng/mL; Brain penetration ([2]; pharmacokinetic assay, compared with cocaine): occupies the brain as readily as cocaine |
| COC(=O)[C@H]1[C@@H](OC(=O)c2ccccc2)C[C@@H]2CC[C@@]1(c1ccccc1)N2C [Compound 11d, Methyl (1R,2R,3S,5S)-(−)-3-(benzoyloxy)-1-phenyl-8-methyl-8-azabicyclo[3.2.1]octane-2-carboxylate] | 31.9 ± 5.7 | 974 ± 308 | locomotor activities below those observed with 10 mg/kg of cocaine | 1980 | Potency at blocking DAT relative to cocaine (human DAT; versus cocaine): ten-fold more potent than cocaine |
| CCCCC[C@@]12CC[C@@H](C[C@H](OC(=O)c3ccccc3)[C@@H]1C(=O)OC)N2C [Compound 11c, Methyl (1R,2R,3S,5S)-(+)-1-pentyl-3-(benzoyloxy)-8-methyl-8-azabicyclo[3.2.1]octane-2-carboxylate] | 1270 | 1890 | locomotor activities below those observed with 10 mg/kg of cocaine | 1600 ± 21 |  |
| CC[C@@]12CC[C@@H](C[C@H](OC(=O)c3ccccc3)[C@@H]1C(=O)OC)N2C [Compound 11b, Methyl (1R,2R,3S,5S)-(−)-1-ethyl-3-(benzoyloxy)-8-methyl-8-azabicyclo[3.2.1]octane-2-carboxylate] | 95.1 ± 17 | 1110 | locomotor activities below those observed with 10 mg/kg of cocaine | 598 ± 179 |  |
